Among the data in ChEMBL document CHEMBL1142814, “Synthesis and preliminary biological evaluation of new anti-tubulin agents containing different benzoheterocycles” (Bioorg Med Chem Lett, 2005) are IC50 and inhibition values, retold here.

The subject of one test is CCRF-CEM. The test is described as follows: Concentration required to inhibit human T-lymphoblast CEM cell line proliferation. The class given is functional, cell-based.
Another test deals with MOLT-4. The test can be described thus: Concentration required to inhibit human T-lymphoblast Molt4/C8 cell line proliferation. The class given is functional, cell-based.
In the next test the test system is FM3A. The test can be described thus: Concentration required to inhibit murine mammary carcinoma FM3A cell line proliferation. Type of test: functional, cell-based. The following applies: Mus musculus.
The test system of the next test is L1210. The test is described as follows: Concentration required to inhibit murine leukemia L1210 cell line proliferation. The class given is functional, cell-based. The following applies: Mus musculus.
The target in test [1] is Tubulin beta chain (Bos taurus). The test is described as follows: Concentration required to inhibit tubulin polymerization at 10 uM.
Test [2] concerns the target Tubulin beta chain (Bos taurus) (UniProt Q6B856). The test is described as follows: Inhibition of [3H]colchicine binding to 1 uM beta-tubulin at 2 uM.
For test [3] the target is unchanged. The test is described as follows: Inhibition of 1 uM [3H]colchicine binding to tubulin at 5 uM.

Chain of Tubulin beta chain (Bos taurus) (UniProt Q6B856) (Q6B856 whole entry): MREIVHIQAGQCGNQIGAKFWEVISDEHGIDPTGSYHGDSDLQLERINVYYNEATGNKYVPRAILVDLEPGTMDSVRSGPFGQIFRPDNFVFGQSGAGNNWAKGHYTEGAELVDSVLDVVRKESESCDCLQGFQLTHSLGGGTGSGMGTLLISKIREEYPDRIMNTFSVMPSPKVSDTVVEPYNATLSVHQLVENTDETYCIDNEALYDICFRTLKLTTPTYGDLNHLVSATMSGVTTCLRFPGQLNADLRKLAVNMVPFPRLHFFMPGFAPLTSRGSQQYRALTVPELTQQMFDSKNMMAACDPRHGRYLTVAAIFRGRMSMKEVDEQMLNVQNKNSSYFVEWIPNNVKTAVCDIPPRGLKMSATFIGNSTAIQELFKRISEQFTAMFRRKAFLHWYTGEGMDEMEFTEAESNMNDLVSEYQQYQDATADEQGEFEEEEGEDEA

Consider `COc1cc(C(=O)c2[nH]c3ccccc3c2N)cc(OC)c1OC`, for which the 50% inhibitory concentration (IC50) with CCRF-CEM, in the test with MOLT-4, in the test with FM3A and with L1210 was above 10000 nM throughout.
In the case of `COc1cc(C(=O)c2oc3ccccc3c2N)cc(OC)c1OC`, the IC50 in the test on CCRF-CEM, with MOLT-4, in the test on FM3A and in the test on L1210 was above 10000 nM in each case.
With `COc1cc(C(=O)c2sc3cc(C)ccc3c2N)cc(OC)c1OC`, the concentration for half-maximal inhibition (IC50) with CCRF-CEM came to 24 nM; in test [1], 1300 nM; in the test with MOLT-4, 34 nM; in the test on FM3A, 71 nM; with L1210, 58 nM. The inhibition in test [2] was 77%; in test [3], 88%.
As to `COc1ccc(C(=O)c2c(N)sc3ccccc23)cc1OC`, the IC50 came to 1700 nM in the test on CCRF-CEM, 1700 nM in the test on MOLT-4, 4700 nM in the test on FM3A and 3700 nM with L1210.
Consider `COc1cc(C(=O)c2sc3ccccc3c2N)cc(OC)c1OC`, for which the IC50 in the test with CCRF-CEM is 310 nM; in test [1], 4200 nM; in the test on MOLT-4, 290 nM; in the test on FM3A, 1800 nM; in the test on L1210, 350 nM. The inhibition in test [3] turned out to be 39%.
Take `COc1cc(C(=O)c2c(N)sc3c2CCCC3)cc(OC)c1OC`: the concentration for half-maximal inhibition (IC50) with CCRF-CEM is 2150 nM; in test [1] it was above 40000 nM; in the test with MOLT-4 it was 1580 nM; in the test with FM3A, 5680 nM; with L1210, 2240 nM. In test [3], this compound registered an inhibition of 3%.
Regarding `COc1ccc(C(=O)c2c(N)sc3ccccc23)cc1`, the IC50 is above 10000 nM in the test on CCRF-CEM, 9200 nM with MOLT-4, above 10000 nM in the test with FM3A and above 10000 nM in the test on L1210.
In the case of `COc1cc(C(=O)c2c(N)sc3ccccc23)cc(OC)c1OC`, the concentration for half-maximal inhibition (IC50) in test [1] turned out to be 3100 nM; with MOLT-4 it was 73 nM. In test [3], this compound registered an inhibition of 57%.

Usually IC50 stands for the concentration needed to halve the response being measured. In general, inhibition refers to how much of the control response was suppressed. High values mean a response far below the control, low ones a response near the control.
